pIC50: −log10 of the molar value.
How the values were obtained:
recombinant BTK = target: T1, recombinant BTK (Mus musculus, UniProt P35991); assay: Recombinant BTK immune-complex kinase assay (baculovirus vector expression system); assay type: biochemical, murine; conditions: for inhibition of recombinant BTK, concentration dependence: BTK expressed in a baculovirus vector expression system; for pIC50: recombinant BTK, kinase assay (Table 1)
T1 construct: made in house; host or cells: Insect cells (Sf21, IPLB-SF21-AE) with recombinant baculovirus from pFastBac1-BTK
Description: The effects of calanolides on the enzymatic activity of the tyrosine kinase BTK in kinase assays was evaluated using recombinant BTK, according to the methods previously reported (Mahajan et al., 1999, J Biol. Chem., 274:9587-9599).
Sf21 (IPLB-SF21-AE) cells, derived from the ovarian tissue of the fall armyworm Spodotera frugiperda, were obtained from Invitrogen and maintained at 26-28° C. in Grace's insect cell medium supplemented with 10% FBS and 1.0% antibiotic/antimycotic (GIBCO-BRL). Stock cells were maintained in suspension at 0.2-1.6×10^6 /ml in 600 ml total culture volume in 1 L Bellco spinner flasks at 60-90 rpm. Cell viability was maintained at 95-100% as determined by trypan blue dye exclusion.
To construct the recombinant baculovirus containing the murine BTK gene, the gene encoding BTK was excised from pBluescript SKII^+ vector (Stratagene) by digestion with BamHI. This fragment was then ligated into pFastBac1 (Gibco-BRL). The resulting vector, pFastBac1-BTK, was used to generate the recombinant baculovirus by site-specific transposition in E. coli DH10Bac cells (Gibco-BRL), which harbor a baculovirus shuttle vector (bacmid), bMON14272. The resulting recombinant bacmid DNA was introduced into insect cells by transfection with the standard liposome-mediated method using Cellfectin reagent (Gibco-BRL). Four days later, transfection supernatants were harvested for subsequent plaque purification and analyzed.
Immunoprecipitations, immune-complex protein kinase assays, and immunoblotting using the ECL chemiluminescence detection system (Amersham Life Sciences) were conducted as described previously (Mahajan et al., 1999, J. Biol. Chem., 274:9587-9599). Following electrophoresis, kinase gels were dried onto Whatman 3M filter paper and subjected to phosphoimaging on a Molecular Imager (Bio-Rad, Hercules, Calif.) as well as autoradiography on film. Similarly, all chemiluminescent BTK Western blots were subjected to three dimesional densitometric scanning using the Molecular Imager and Imaging Densitometer using the Molecular Analyst/Macontosh version 2.1 software following the specifications of the manufacturer (Bio-Rad). For each drug concentration, a BTK kinase activity index was determined by comparing the ratios of the kinase activity in phosphorimager units (PIU) and density of the protein bands in densitometric scanning units (DSU) to those of the baseline sample and using the formula: Activity Index=[PIU of kinase band/DSU of BTK protein band]test sample :[PIU of kinase band/DSU of BTK protein band]baseline control sample. Horse radish peroxidase-conjugated sheep anti-mouse, donkey anti-rabbit secondary antibodies and ECL reagents were purchased from Amersham (Oakbrook, Ill.).

RBL-2H3 mast cells [1] = assay: Leukotriene C4 release from IgE/antigen stimulated RBL-2H3 mast cells (LTC4 ELISA); assay type: cell-based; conditions: 1 hour preincubation, IgE/DNP-BSA challenge 30 minutes
Description: (§1) RBL-2H3 cells were sensitized with monoclonal anti-DNP IgE antibody (0.24 mg/ml) for 1 hour at 37° C. in a 48-well tissue culture plate. RBL-2H3 cells were allowed to adhere to the plate, whereas bone marrow mast cells (BMMC) were used in suspension. Unbound IgE was removed by washing the cells with phosphate buffered saline. After washing the BMMC were re-suspended in RPMI-hepes buffer. PIPES-buffered saline containing 1 mM calcium chloride was added to the monolayers of the RBL-2H3 cells.
(§2) To study the effects of compound HI-D12, mast cells were incubated with compound HI-D12 at the indicated concentrations or vehicle for 1 hour prior to challenge. The cells were challenged with 20 ng/ml DNP-BSA for 30 minutes at 37° C. The plate was then centrifuged at 200 g for 10 minutes at 4° C. Supernatants were removed and saved. RBL-2H3 cell pellets were washed with phosphate buffered saline and solubilized in PIPES buffered saline containing 0.1% Triton X-100.
(§3) Leukotriene (LT) C4 levels were estimated in cell free supernatants by immunoassay using (LT) C4 ELISA kits obtained from Cayman Company (Ann Arbor, Mich.), according to the manufacturer instructions. β-hexosaminidase release was estimated in cell free supernatants and Triton X-100 solubilized pellets, using the method described in Ozawa et al, 1993, J. Biol. Chem., 268:1749-1756.

BALB/c mice = assay: Passive cutaneous anaphylaxis in mice (Evans blue dye extravasation); assay type: in vivo
Description: In order to examine the effect of HI-D12 on passive cutaneous anaphylaxis in mice, dorsal sides of the ears of BALB/c mice were injected intradermally with 20 ng of DNP-IgE (left ears) or PBS (right ears) in 20 μL volume using a 30-gauge needle, as previously described (Miyajima et. al., 1997, J. Clin. Invest. 99:901-914). After 20 hours, mice were treated with compound HI-D12 (15 or 50 mg/kg i.p.) twice at 1 hour intervals prior to the antigen challenge. Control mice were treated with an equal volume of vehicle. Thirty minutes after the last dose of compound HI-D12 or vehicle, mice were challenged with 100 μg antigen (DNP-BSA) in 200 μl 2% Evans blue dye intravenously. Mice were sacrificed by cervical dislocation 30 minutes after the antigen challenge. For quantitation of Evans blue dye extravasation as a measure of anaphylaxis-associated vascular hyperpermeability, 8 mm skin specimens were removed from the ears of mice, minced in 2 ml formamide and incubated at 80° C. for 2 hours in water bath to extract the dye. The absorbance was read at […]. The data were expressed as plasma exudation indices (i.e., times increase in optical density over PBS treated ears at 620 nm).

RBL-2H3 mast cells [2] = assay: β-hexosaminidase release from IgE/antigen stimulated RBL-2H3 mast cells; assay type: cell-based; conditions: 1 hour preincubation, IgE/DNP-BSA challenge 30 minutes
Description: as §1, §2, §3

T1 sequence (P35991 whole entry): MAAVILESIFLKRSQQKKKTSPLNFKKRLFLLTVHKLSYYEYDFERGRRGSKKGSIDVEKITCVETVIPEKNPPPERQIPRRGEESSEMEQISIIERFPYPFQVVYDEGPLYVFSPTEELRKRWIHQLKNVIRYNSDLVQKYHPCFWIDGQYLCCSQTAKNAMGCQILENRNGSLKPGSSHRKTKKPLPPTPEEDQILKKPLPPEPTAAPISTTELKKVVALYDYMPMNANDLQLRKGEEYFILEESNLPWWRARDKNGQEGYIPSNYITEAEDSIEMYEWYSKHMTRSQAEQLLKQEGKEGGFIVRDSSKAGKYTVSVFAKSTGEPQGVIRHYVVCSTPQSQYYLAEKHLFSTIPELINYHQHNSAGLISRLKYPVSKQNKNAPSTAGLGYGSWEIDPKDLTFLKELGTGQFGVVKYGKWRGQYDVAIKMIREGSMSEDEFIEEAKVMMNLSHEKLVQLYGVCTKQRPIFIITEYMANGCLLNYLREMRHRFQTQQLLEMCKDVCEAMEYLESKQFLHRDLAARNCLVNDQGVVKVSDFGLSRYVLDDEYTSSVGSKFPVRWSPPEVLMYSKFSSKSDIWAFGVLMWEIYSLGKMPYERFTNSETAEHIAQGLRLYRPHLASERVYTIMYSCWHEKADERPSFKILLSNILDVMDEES

Row | Structure (SMILES) | inhibition of recombinant BTK, concentration dependence (recombinant BTK) | pIC50 (recombinant BTK) | inhibition of LTC4 release (RBL-2H3 mast cells [1]) | tolerability of dose level (BALB/c mice; 50 mg/kg dose level) | inhibition of IgE/antigen induced plasma exudation (BALB/c mice; 50 mg/kg i.p., twice prior to antigen challenge) | effect on release of preformed granule-associated β-hexosaminidase (RBL-2H3 mast cells [2])
1 | CCCc1cc(=O)oc2c3c(c4c(c12)OC(C)(C)C=C4)O[C@H](C)[C@@H](C)[C@@H]3O (relative stereo) [HI-D63, (±)-Calanolide A] | in a concentration-dependent fashion | 3.89 | – | – | – | –
2 | CCCc1cc(=O)oc2c3c(c4c(c12)OC(C)(C)C=C4)O[C@H](C)[C@@H](C)C3=O (relative stereo) [HI-D86, 10,11-trans-Dihydro-6,6,10,11-tetramethyl-4-propyl-2H,6H,12H-benzo[2-b: 3,4-b':5,6-b"]tripyran-2,12-dione] | in a concentration-dependent fashion | 3.96 | – | – | – | –
3 | CCCc1cc(=O)oc2c(C(=O)CC)c(O)c3c(c12)OC(C)(C)C=C3 [HI-D12, 6,6 Dimethyl-9-hydroxy-10-propionyl-4-propyl-2H,6H-benzo[1,2-b: 3,4-b']dipyran-2-one] | in a concentration-dependent fashion | 4.54 | inhibited the release of the newly synthesized arachidonic acid metabolite LTC4 in a concentration-dependent fashion | nontoxic | 70% | did not prevent the release of preformed granule-associated β-hexosaminidase

Reference: patent publication US6306897A, “Calanolides for inhibiting BTK” (Parker Hughes Institute, priority 1999, dated 2001)
